Measurements: US9097673B2, “Processes and kits for determining multi-drug resistance of cells” (ENZO LIFE SCIENCES, INC., priority 2010, dated 2015)

Experiments:
HeLa cell line [1] = assay: Dye efflux flow cytometry MDR assay; type: cell-based, human; parameters: key to D-value, Verapamil / D-value, Novobiocin: KS D value, 0 to 1; negative if control brighter than sample; details: for D-value, +4° C.: kept on ice without inhibitor
From the text: (§1) Kolmogorov-Smirnov statistics measures the difference between two distribution functions and generates a D value ranging between 0 and 1.0, with higher values indicating a greater difference between the distribution functions. The D value generated by the KS statistics was modified by ascribing a negative value if the fluorescence of a negative control (no inhibitor) was brighter than the fluorescence of the sample with inhibitor. The method was one of those recommended by the First International MDR1 Methods Detection Workshop (St. Jude Children's Research Hospital, Memphis, Tenn.).
(§2) Cells were grown in tissue culture dishes and on the day of assay they were trypsinized and washed twice with ice-cold PBS. Post-wash, the cells were re-suspended in cold phenol red indicator-free medium at a density of 1×10^6/ml. For each detection set, eighteen tubes (6 tubes without inhibitor and 3 tubes for each inhibitor tested, in triplicates) each containing 2.5-5×10^5/cells were prepared. Cells were centrifuged at 200×g for 5 min, and after discarding supernatant, re-suspended at 1×10^6/ml in ice-cold indicator-free medium containing Fluo-8™ AM or Rhod-4™ AM probes. Additionally, an aliquot of non-stained cells was prepared for background fluorescence measurements. Cells were incubated with the probe(s) on ice for 60 min, than centrifuged at 200×g for 5 min. After discarding the supernatant, cells were either washed twice with PBS or simply were spun down to remove the excess of the probe and resuspended at 5×10^5 cells/sample in 0.5 ml of following solutions:
(§3) 1. warm (37° C.) indicator-free medium containing vehicle only (3 tubes)
(§4) 2. warm (37° C.) indicator-free medium containing inhibitor (3 tubes for each inhibitor tested)
(§5) 3. ice-cold indicator-free medium (3 tubes)
(§6) Tube sets 1 and 2 were immediately transferred to a water bath (37° C.) and incubated for 90 min. Tube set 3 was kept on ice. Post incubation, 4 ml of ice-cold indicator-free medium was added per tube, tubes were centrifuged at 200×g for 5 min, supernatant was discarded, and cell pellet was re-suspended in the cold indicator-free medium and centrifuged again. Finally, cells were re-suspended in 0.5 ml of cold indicator-free medium and maintained on ice until analysis. Alternatively, cells were analyzed without washing. Flow cytometry experiments were performed as described in Example 3.

A549 cell line [2] = assay: Dye efflux flow cytometry MDR assay; type: cell-based, human; parameters: key to D-value, Verapamil / D-value, Novobiocin: KS D value, 0 to 1; negative if control brighter than sample; details: for D-value, +4° C.: kept on ice without inhibitor
From the text: as §1, §2, §3, §4, §5, §6

[3] = system: CHO K1, A549 and HeLa cells; assay: MTT test of dye toxicity; type: cell-based; details: 5 μM Fluo-8 AM, 3 h at 37° C.
Procedure: Three model cell lines (CHO K1, A549 and HeLa cells) were seeded in 96 well plates (5×10^3 cells/well) and 24 h later were treated with the working concentrations of dyes (0.5 μM of Calcein AM, 5 μM of Fluo-8™ AM, 4 μM of Rhod-4™ AM) used in the MDR assay for 3 h at 37° C. Then reagents were removed and a standard MTT test was performed as described elsewhere [Mosmann T., J Immunol Methods 65(1-2):55-63 (1983)]. Viability was calculated as a ratio of OD595 for treated cells to the OD595 of untreated control cells (FIG. 4). […] Additionally, the concentration of Rhod-4™ AM can be decreased further for particularly sensitive cell lines.

A549 cell line [4] = assay: Dye uptake flow cytometry MDR assay; type: cell-based, human; details: A549, dye uptake
Procedure: (§7) Concentrations of the modulators used in the experiments were non-toxic to the cells (based upon standard 3-(4,5-Dimethylthiazol-2-Yl)-2,5-Diphenyltetrazolium Bromide (MTT) testing, data not shown). Fluo-8™ was used in all experiments at 5 μM, and Rhod-4™—at 4 μM final concentrations.
(§8) Cells were grown on tissue culture dishes and on the day of assay were trypsinized and washed twice with warm (37° C.) phosphate-buffered saline (PBS). Post-wash, the cells were re-suspended in warm phenol red indicator-free medium at a density of 1×10^6/ml. For each detection set, sixteen tubes (5 samples in triplicates plus non-stained control for background fluorescence) in numbered tubes each containing 5×10^5/cells (0.5 ml) were prepared. […] After incubation for 5 min at 37° C., 0.25 ml of warm medium with Fluo-8™ AM probe (5 μM final concentration) or Rhod-4™ AM probe (2 μM final concentration) was added to each tube excluding non-stained control that receives plain medium and cells were incubated for 30 min at 37° C. and analyzed immediately by flow cytometry. In the second set of the tubes, the reaction was stopped by rapid centrifugation (1 min) at relatively low speed (200×g). After wash with ice-cold PBS and discarding the supernatant, cells were re-suspended in 0.5 ml of ice-cold medium and kept on ice until flow cytometry analysis. The third set of cells simply was spun down (1 min, 200×g) to remove the excess of the probe, resuspended in ice-cold medium and kept on ice until flow cytometry analysis.
(§9) Fluo-8™ dye fluorescence was measured in the FL1 channel, and Rhod-4™ dye fluorescence—in the FL2 channel.

CHO K1 cell line = assay: Dye efflux flow cytometry MDR assay; type: cell-based, hamster; parameters: key to D-value, Verapamil / D-value, Novobiocin: KS D value, 0 to 1; negative if control brighter than sample; details: for D-value, +4° C.: kept on ice without inhibitor
From the text: as §1, §2, §3, §4, §5, §6

HeLa cell line [5] = assay: Dye uptake flow cytometry MDR assay; type: cell-based, human; details: HeLa, dye uptake
Procedure: as §7, §8, §9

[6] = representative experiment (Table 9)
[7] = A549, dye efflux, representative experiment (Table 9)
[8] = Fluo-8 AM probe, dye efflux, A549, No Wash
[9] = Fluo-8 AM probe, dye efflux, A549, Wash
[10] = average of three independent experiments (Table 10)
[11] = average of three representative experiments (Table 6)
[12] = representative experiment (Table 8)
[13] = CHO K1, dye efflux, representative experiment (Table 9)
[14] = Fluo-8 AM probe, dye efflux, CHO K1, No Wash
[15] = Fluo-8 AM probe, dye efflux, CHO K1, Wash

## CC(=O)OCOC(=O)CN(CC(=O)OCOC(C)=O)c1ccccc1OCCOc1cc(-c2c3ccc(=O)cc-3oc3cc(OCOC(C)=O)ccc23)ccc1N(CC(=O)OCOC(C)=O)CC(=O)OCOC(C)=O [Fluo-8 ™ AM]
HeLa cell line [1]; Fluo-8 AM probe, No Wash
  D-value, Cyclosporin A: 0.12
  D-value, Novobiocin: 0.13
  D-value, Probenecid: 0.13
  D-value, Verapamil: 0.076
  D-value, +4° C.: 0.15
HeLa cell line [1]; Fluo-8 AM probe, Wash
  D-value, Cyclosporin A: 0.14
  D-value, Novobiocin: 0.16
  D-value, Probenecid: 0.14
  D-value, Verapamil: 0.14
  D-value, +4° C.: 0.14
HeLa cell line [1]; kept on ice without inhibitor (Table 9)
  D-value, 4° C.: 0.83
HeLa cell line [1]; [6]
  D-value, Cyclosporine A: 0.13
  D-value, Novobiocin: 0.15
  D-value, Probenecid: 0.16
  D-value, Verapamil: 0.15
A549 cell line [2]; A549, dye efflux, kept on ice without inhibitor (Table 9)
  D-value, 4° C.: 0.80
A549 cell line [2]; [7]
  D-value, Cyclosporine A: 0.5
  D-value, Novobiocin: 0.57
  D-value, Probenecid: 0.33
  D-value, Verapamil: 0.02
A549 cell line [2]; [8]
  D-value, Cyclosporin A: 0.83
  D-value, Novobiocin: 0.57
  D-value, Probenecid: 0.33
  D-value, Verapamil: 0.12
  D-value, +4° C.: 0.77
A549 cell line [2]; [9]
  D-value, Cyclosporin A: 0.71
  D-value, Novobiocin: 0.46
  D-value, Probenecid: 0.18
  D-value, Verapamil: 0.11
  D-value, +4° C.: 0.75
[3]
  Toxicity to the cells (MTT viability): not toxic
A549 cell line [4]; [10]
  D-value, Cyclosporine A: 0.43
  D-value, FTC: 0.31
  D-value, MK-571: 0.61
  D-value, Novobiocin: 0.37
  D-value, Verapamil: 0.06
A549 cell line [4]; [11]
  D-value, Fumitremorgan C: 0.23
  D-value, Probenecid: 0.26
  D-value, Verapamil: 0.07
A549 cell line [4]; [12]
  D-value, Cyclosporine A: 0.51
  D-value, Novobiocin: 0.44
  D-value, Probenecid: 0.49
  D-value, Verapamil: 0.09
CHO K1 cell line; CHO K1, dye efflux, kept on ice without inhibitor (Table 9)
  D-value, 4° C.: 0.72
CHO K1 cell line; [13]
  D-value, Cyclosporine A: 0.55
  D-value, Novobiocin: 0.70
  D-value, Probenecid: 0.30
  D-value, Verapamil: 0.28
CHO K1 cell line; [14]
  D-value, Cyclosporin A: 0.8
  D-value, Novobiocin: 0.7
  D-value, Probenecid: 0.19
  D-value, Verapamil: 0.21
  D-value, +4° C.: 0.78
CHO K1 cell line; [15]
  D-value, Cyclosporin A: 0.62
  D-value, Novobiocin: 0.79
  D-value, Probenecid: 0.23
  D-value, Verapamil: 0.34
  D-value, +4° C.: 0.76
HeLa cell line [5]; [11]
  D-value, Fumitremorgan C: 0.15
  D-value, Probenecid: 0
  D-value, Verapamil: 0.10
HeLa cell line [5]; [12]
  D-value, Cyclosporine A: 0.14
  D-value, Novobiocin: 0.09
  D-value, Probenecid: 0.15
  D-value, Verapamil: 0.04
